Data taken from the OPERA property sets (Mansouri et al. 2018).
In brackets after ≈: the same amount, converted by molar mass.

Settings: not given

Compound	solubility	logP
Nc1ccc(S(=O)(=O)O)c2cc(S(=O)(=O)O)ccc12	551 mM (≈ 167000 µg/mL)	–
CCN(CC)C(=O)CC(C)C	254 mM (≈ 40000 µg/mL)	–
O=C1NCCN1/N=C/c1ccc([N+](=O)[O-])o1	0.439 mM (≈ 98.5 µg/mL)	–
Nc1nc(N)c(O)c(O)n1	20.1 mM (≈ 2850 µg/mL)	–
CCC(C)C(C)(COC(N)=O)COC(N)=O (configuration not stated)	4.31 mM (≈ 1000 µg/mL)	–
O=C[C@H](O)C(O)[C@H](O)CO (stereo in doubt)	3700 mM (≈ 555000 µg/mL)	–
O=C(c1ccccc1O)N1CCOCC1	19.8 mM (≈ 4100 µg/mL)	–
CN(CCO)c1nc2c(c(=O)n(C)c(=O)n2C)n1C	224 mM (≈ 60000 µg/mL)	–
CC[C@@]12CCCN3CC[C@]4(c5cccc(OC)c5N(C(C)=O)[C@@H]4CC1)[C@H]32	47.1 mM (≈ 16700 µg/mL)	–
CC(=O)N/N=C/c1ccc([N+](=O)[O-])o1	2.54 mM (≈ 500 µg/mL)	–
CCC(C)C1(CC)C(=O)N=C([O-])NC1=O.[Na+] (configuration not stated)	1420 mM	–
CN1C(=O)OC(C)(C)C1=O	349 mM (≈ 50000 µg/mL)	–
OC[C@@H](O)[C@H](O)[C@@H](O)CO	4220 mM (≈ 642000 µg/mL)	–
O=C(C1CCCCC1)N1CC(=O)N2CCc3ccccc3C2C1 (configuration not stated)	1.28 mM (≈ 400 µg/mL)	–
O=C(OC[C@H]1O[C@@H](Oc2ccccc2CO)[C@H](O)[C@@H](O)[C@@H]1O)c1ccccc1	1.28 mM (≈ 500 µg/mL)	–
CN1C2CCCC1CC(=O)C2	2610 mM (≈ 400000 µg/mL)	–
O=C([O-])c1ccccc1C(=O)O.[K+]	408 mM	–
NC(=O)OCC(Cl)(Cl)Cl	52 mM (≈ 10000 µg/mL)	–
C=C1CCO[C@]2([C@H](O)[C@@](C)(O)CO)NC(=O)[C@@]1(O)NC2=O	635 mM (≈ 192000 µg/mL)	–
C=CCC(C(=O)NC(N)=O)C(C)C (configuration not stated)	1.79 mM (≈ 330 µg/mL)	–
Cc1cc(NS(=O)(=O)c2ccc(N)cc2)sn1	83.9 mM (≈ 22600 µg/mL)	–
O=Cc1ccccc1O[C@@H]1O[C@H](CO)[C@@H](O)[C@H](O)[C@H]1O	63.3 mM (≈ 18000 µg/mL)	–
CCC1(N2CCCCC2)C(=O)NC(=O)NC1=O	6.98 mM (≈ 1670 µg/mL)	–
CC1(C)[C@H]2CC[C@]1(C)C(=O)[C@H]2O	119 mM (≈ 20000 µg/mL)	–
CC(=O)c1ccc(O)c(O)c1O	9.51 mM (≈ 1600 µg/mL)	–
COC(=O)CC(C)=O	4310 mM (≈ 500000 µg/mL)	–
CCN(CC)C(=O)CSc1ccc(Cl)nn1	19.2 mM (≈ 5000 µg/mL)	–
CCOc1ccc2nc3cc(N)ccc3c(N)c2c1	263 mM (≈ 66600 µg/mL)	–

Compound	solubility	logP
CC(C)(C)OOC(C)(C)C	0.684 mM (≈ 100 µg/mL)	–
C=C[C@H]1C[N@@]2CC[C@H]1C[C@H]2C12Nc3ccccc3C1(O)CCO2 (some centres not stated)	2.14 mM (≈ 667 µg/mL)	–
CC(C[N+](C)(C)C)OC(N)=O.[Cl-] (configuration not stated)	3180 mM	–
CNC(=S)NCO	832 mM (≈ 100000 µg/mL)	–
CC(O)C(Cl)(Cl)Cl (configuration not stated)	175 mM (≈ 28600 µg/mL)	–
OC(CI)CI	40.1 mM (≈ 12500 µg/mL)	–
Cc1cc(O)c(Cl)c(C)c1Cl	1.05 mM (≈ 200 µg/mL)	–
COCc1ccc([N+](=O)[O-])o1	70 mM (≈ 11000 µg/mL)	–
CN(Cc1cc(Br)cc(Br)c1N)C1CCCCC1	10.6 mM (≈ 4000 µg/mL)	–
O=C(C(Cl)Cl)N(CCO)Cc1ccc(Oc2ccc([N+](=O)[O-])cc2)cc1	0.00751 mM (≈ 3 µg/mL)	–
Nc1ccc(S(=O)(=O)O)c2ccc(S(=O)(=O)O)cc12	22.8 mM (≈ 6900 µg/mL)	–
CCCCN(CCN(CCCC)C(=O)N1CCOCC1)C(=O)N1CCOCC1	1250 mM (≈ 500000 µg/mL)	–
COc1ccc(C(CN(C)C)C2(O)CCCCC2)cc1.Cl (configuration not stated)	–	0.43
Cc1csc(NS(=O)(=O)c2ccc(N)cc2)n1	7.43 mM (≈ 2000 µg/mL)	–
CCC(Br)(CC)C(=O)NC(N)=O	1.4 mM (≈ 333 µg/mL)	–
CC(=O)OC[C@H]1O[C@@](COC(C)=O)(O[C@H]2O[C@H](COC(C)=O)[C@@H](OC(C)=O)[C@H](OC(C)=O)[C@H]2OC(C)=O)[C@@H](OC(C)=O)[C@@H]1OC(C)=O	1.34 mM (≈ 910 µg/mL)	–
Cn1ccc(=O)c2ccccc21	104 mM (≈ 16600 µg/mL)	–
CC(=O)C1CCOC1=O (configuration not stated)	1560 mM (≈ 200000 µg/mL)	–
C#CCOC(=O)/C=C(C)/C=C/CC(C)CCCC(C)C (configuration not stated)	0.0189 mM (≈ 5.22 µg/mL)	–
CN(C)CCc1ccc(O)cc1	42.4 mM (≈ 7000 µg/mL)	–
CC(=O)Oc1ccc(Br)cc1C(=O)O	2.57 mM (≈ 667 µg/mL)	–
O=P([O-])([O-])O[C@@H]1[C@@H](O)[C@H](O)[C@@H](O)[C@H](O)[C@@H]1O	1280 mM	–
CCC(C)(CC)OC(N)=O	27.5 mM (≈ 4000 µg/mL)	–
NC(=O)N(CCO)/N=C/c1ccc([N+](=O)[O-])o1	2.06 mM (≈ 500 µg/mL)	–
O=S(=O)([O-])CS(=O)(=O)[O-].[Ca+2]	1340 mM	–
COc1c2c(cc3oc(=O)ccc13)OC(C)(C)C=C2	0.155 mM (≈ 40 µg/mL)	–
Nc1nc(N)c(O[C@@H]2O[C@H](CO)[C@@H](O)[C@H](O)[C@H]2O)c(=O)[nH]1	32.9 mM (≈ 10000 µg/mL)	–

Same assay, conditions: 20 °C

Compound	solubility
CC(O)(P(=O)(O)O)P(=O)(O)O	3350 mM (≈ 690000 µg/mL)
CCCOc1ccc([N+](=O)[O-])cc1N	0.693 mM (≈ 136 µg/mL)
CC(=O)N(O)CCCCCNC(=O)CCC(=O)N(O)CCCCCNC(=O)CCC(=O)N(O)CCCCCN	21.4 mM (≈ 12000 µg/mL)
C[C@H](O)[C@@H](O)c1cnc2[nH]c(N)nc(=O)c2n1	2.95 mM (≈ 700 µg/mL)
CC(C)(C)C(O)C(Oc1ccc(Cl)cc1)n1cncn1 (configuration not stated)	0.406 mM (≈ 120 µg/mL)
CC(N)c1ccccc1 (configuration not stated)	347 mM (≈ 42000 µg/mL)
N=C(NCCCCCCNC(=N)NC(=N)Nc1ccc(Cl)cc1)NC(=N)Nc1ccc(Cl)cc1	1.58 mM (≈ 800 µg/mL)
CCSc1nnc(C(C)(C)C)c(=O)n1N	1.84 mM (≈ 420 µg/mL)
CC(=O)N(C)N(C(=O)C(=O)N(C)C)c1ccccc1	292 mM (≈ 76900 µg/mL)
Cc1ccc(C(C)C)c(O)c1C(=O)O	0.515 mM (≈ 100 µg/mL)
Clc1ncnc2[nH]cnc12	32.4 mM (≈ 5000 µg/mL)

Same assay, conditions: 22 °C

Compound	solubility
Nc1nc(N)nc(-c2ccccc2)n1	3.2 mM (≈ 600 µg/mL)
O=C(OCCOCCO)c1ccccc1Nc1cccc(C(F)(F)F)c1	0.00433 mM (≈ 1.6 µg/mL)

Same assay, conditions: 23 °C

Compound	solubility
COc1cc([C@@H]2c3cc4c(c(O)c3C[C@H]3COC(=O)[C@@H]32)OCO4)cc(OC)c1OC	0.0314 mM (≈ 13 µg/mL)

Same assay, conditions: 25 °C

Compound	solubility
Oc1c(Cl)cc(Cl)cc1Sc1cc(Cl)cc(Cl)c1O	0.0112 mM (≈ 4 µg/mL)
OCc1cc(Br)ccc1O	621 mM (≈ 126000 µg/mL)
C[C@H]1O[C@H](O[C@H]2CC[C@H](n3ccc(NC(=O)c4ccc(NC(=O)[C@@](C)(N)CO)cc4)nc3=O)O[C@@H]2C)[C@H](O)[C@@H](O)[C@@H]1N(C)C	3.23 mM (≈ 2000 µg/mL)
CCCC(C)(COC(N)=O)COC(=O)NC(C)C (configuration not stated)	1.15 mM (≈ 300 µg/mL)
C[C@](N)(Cc1ccc(O)c(O)c1)C(=O)O	47.3 mM (≈ 10000 µg/mL)
O=[N+]([O-])c1ccc(C=NO)o1	6.41 mM (≈ 1000 µg/mL)
NS(=O)(=O)c1cc2c(cc1C(F)(F)F)NC=NS2(=O)=O	152 mM (≈ 50000 µg/mL)
NC(=O)c1cnccn1	122 mM (≈ 15000 µg/mL)
O=C1CCC(=O)N1Cl	107 mM (≈ 14300 µg/mL)
C[C@@H]1C(=O)OC[C@H]2[C@@H]1CC[C@@H]2C	11.9 mM (≈ 2000 µg/mL)
COc1cc([C@@H]2c3cc4c(cc3[C@H](O)[C@H]3COC(=O)[C@@H]23)OCO4)cc(OC)c1OC	0.241 mM (≈ 100 µg/mL)
C/C=C\C(=O)OC1C[C@H]2O[C@@H]3C=C(C)C(=O)C[C@]3(C)[C@]1(C)C21CO1 (some centres not stated)	1.2 mM (≈ 400 µg/mL)
NC1(C(=O)O)CCCC1	387 mM (≈ 50000 µg/mL)
CNC[C@H](O)[C@@H](O)[C@H](O)[C@H](O)CO	3620 mM (≈ 707000 µg/mL)
O=C(c1ccc(F)cc1)C1CCN(CCn2c(=O)[nH]c3ccccc3c2=O)CC1	0.0253 mM (≈ 10 µg/mL)
CC(=O)Nc1c(I)c(C(=O)N[C@H]2C(O)O[C@H](CO)[C@@H](O)[C@@H]2O)c(I)c(N(C)C(C)=O)c1I (some centres not stated)	634 mM (≈ 500000 µg/mL)
Cn1c(=O)c2c(ncn2CC(O)CO)n(C)c1=O (configuration not stated)	1310 mM (≈ 333000 µg/mL)
O=C(CCCN1CCC(O)(c2ccc(Cl)cc2)CC1)c1ccc(F)cc1	0.0372 mM (≈ 14 µg/mL)
O=C(C(=O)c1cc([N+](=O)[O-])ccc1O)c1cc([N+](=O)[O-])ccc1O	0.301 mM (≈ 100 µg/mL)
CCCn1cnc2c1c(=O)n(CCCCC(C)=O)c(=O)n2C	104 mM (≈ 32000 µg/mL)
O=c1[nH]c(=O)n([C@H]2C[C@H](O)[C@@H](CO)O2)cc1I	5.65 mM (≈ 2000 µg/mL)
CCCOC(=O)c1cc(O)c(O)c(O)c1	16.5 mM (≈ 3500 µg/mL)
Cn1c([N+](=O)[O-])cnc1COC(N)=O	14.3 mM (≈ 2870 µg/mL)

Compound	solubility
CC(=O)OC(C)(C)C	71.7 mM (≈ 8330 µg/mL)
C=C(C)Cn1c(N)cc(=O)n(C)c1=O	102 mM (≈ 20000 µg/mL)
O=CNc1ccccc1	210 mM (≈ 25400 µg/mL)
CCC(O)(COC(N)=O)c1ccccc1 (configuration not stated)	119 mM (≈ 25000 µg/mL)
O=C1C(Br)=CC(=NCl)C=C1Br	0.196 mM (≈ 58.8 µg/mL)
NC(=O)c1cccnc1	4090 mM (≈ 500000 µg/mL)
C#CC1(OC(N)=O)CCCCC1	15 mM (≈ 2500 µg/mL)
CO[C@H]1O[C@H](CNC(=O)N(CCCl)N=O)[C@@H](O)[C@H](O)[C@H]1O	27.5 mM (≈ 9000 µg/mL)
O=C(OC(=O)c1ccccc1)c1ccccc1	0.0442 mM (≈ 10 µg/mL)
CO[C@H]1[C@H](O)[C@H](O[C@H]2CC[C@@]3(C=O)[C@H](CC[C@@H]4[C@@H]3CC[C@]3(C)[C@@H](C5=CC(=O)OC5)CC[C@]43O)C2)O[C@@H](C)[C@@H]1O	0.729 mM (≈ 400 µg/mL)
O=C1CN=C(c2ccccc2Cl)c2cc([N+](=O)[O-])ccc2N1	0.317 mM (≈ 100 µg/mL)
C=C(C)C(=O)C(=CC(=O)O)OC	118 mM (≈ 20000 µg/mL)
CN1CCN(C(c2ccccc2)c2ccccc2)CC1	< 3.75 mM
NC(Cc1cc(Br)c(O)c(Br)c1)C(=O)O (stereo in doubt)	11.8 mM (≈ 4000 µg/mL)
S=P(N1CC1)(N1CC1)N1CC1	1000 mM (≈ 190000 µg/mL)
Cc1cc(O)c(C(C)C)cc1Cl	5.42 mM (≈ 1000 µg/mL)
CN1C(=O)CCS(=O)(=O)C1c1ccc(Cl)cc1 (configuration not stated)	9.13 mM (≈ 2500 µg/mL)
O=C(O)[C@H](O)[C@@H](O)[C@H](O)[C@H](O)CO	1610 mM (≈ 316000 µg/mL)
O=C1OC(CN2CCOCC2)CN1N=Cc1ccc([N+](=O)[O-])o1 (configuration not stated)	2.31 mM (≈ 750 µg/mL)
CC1(C)CC(=O)CC(=O)C1	29.7 mM (≈ 4160 µg/mL)
NC(=S)Nc1cccc2ccccc12	2.97 mM (≈ 600 µg/mL)
Nc1ncnc2c1ncn2[C@]1(CO)O[C@H](CO)[C@@H](O)[C@H]1O	26.9 mM (≈ 8000 µg/mL)

Same assay, conditions: 26 °C

Compound	solubility
O=C(O)CCSCCC(=O)O	209 mM (≈ 37200 µg/mL)

Same assay, conditions: 27 °C

Compound	solubility
NC(=S)NC(N)=S	20 mM (≈ 2700 µg/mL)
O=C(O)/C=C\C(=O)Nc1ccccc1	5.23 mM (≈ 1000 µg/mL)

Same assay, conditions: 28 °C

Compound	solubility
Nc1ccc(S(=O)(=O)c2cnc(N)s2)cc1	1.57 mM (≈ 400 µg/mL)

Same assay, conditions: 29 °C

Compound	solubility
NC(Cc1n[nH]c2ccccc12)C(=O)O (configuration not stated)	39 mM (≈ 8000 µg/mL)

Same assay, conditions: 30 °C

Compound	solubility
COCCOc1c(OC)cc(Cc2cnc(N)nc2N)cc1OC	7.93 mM (≈ 2650 µg/mL)
Nc1ccc(S(=O)(=O)NC(=O)c2ccccc2)cc1	1.12 mM (≈ 310 µg/mL)

Same assay, conditions: pH 5.5

Compound	solubility
Cc1cnc(NS(=O)(=O)c2ccc(N)cc2)nc1	1.51 mM (≈ 400 µg/mL)
